Source: ChEMBL document CHEMBL1201861, “Genomics of Drug Sensitity in Cancer screening data, Wellcome Trust Sanger Institute”

Assays:
Assay in all cases: cells
[1] = test system: CaR-1; type: functional, cell-based, Homo sapiens; conditions: Homo sapiens, CaR-1;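 note: growth inhibition of human CaR-1 cancer cells, read out with a cell viability assay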
Description: SANGER: Inhibition of human CaR-1 cell growth in a cell viability assay.

[2] = test system: D-502MG; type: functional, cell-based, Homo sapiens; conditions: Homo sapiens, D-502MG
Description: SANGER: Inhibition of human D-502MG cell growth in a cell viability assay.

[3] = test system: DOK; type: functional, cell-based, Homo sapiens; conditions: Homo sapiens, DOK;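 note: cell viability assay read-out, values reflect inhibition of cell growth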
Description: SANGER: Inhibition of human DOK cell growth in a cell viability assay.

[4] = test system: ESS-1; type: functional, cell-based, Homo sapiens; conditions: Homo sapiens, ESS-1;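 note: growth inhibition of human ESS-1 cells, read out by a cell viability assay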
Description: SANGER: Inhibition of human ESS-1 cell growth in a cell viability assay.

[5] = test system: EW-18; type: functional, cell-based; conditions: Homo sapiens;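 note: growth inhibition of EW-18 cells, read out by a cell viability assay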
Description: SANGER: Inhibition of human EW-18 cell growth in a cell viability assay.

[6] = test system: EW-3; type: functional, cell-based; conditions: Homo sapiens;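 note: cell viability assay read-out, IC50 reflects inhibition of growth of the EW-3 cells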
Description: SANGER: Inhibition of human EW-3 cell growth in a cell viability assay.

[7] = test system: HCC1954; type: functional, cell-based, Homo sapiens; conditions: Homo sapiens, HCC1954;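 note: growth inhibition of human HCC1954 cells, read out with a cell viability assay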
Description: SANGER: Inhibition of human HCC1954 cell growth in a cell viability assay.

[8] = test system: HCE-4; type: functional, cell-based, Homo sapiens; conditions: Homo sapiens, HCE-4;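 note: cell viability assay measuring inhibition of growth in the human HCE-4 cell line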
Description: SANGER: Inhibition of human HCE-4 cell growth in a cell viability assay.

[9] = test system: HMV-2 cell line; type: functional, cell-based, Homo sapiens; conditions: Homo sapiens, HMV-2;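 note: growth inhibition of HMV-II cells, read out with a cell viability assay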
Description: SANGER: Inhibition of human HMV-II cell growth in a cell viability assay.

[10] = test system: JEG-3; type: functional, cell-based, Homo sapiens; conditions: Homo sapiens, JEG-3;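 note: growth inhibition of human JEG-3 cells, read out with a cell viability assay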
Description: SANGER: Inhibition of human JEG-3 cell growth in a cell viability assay.

[11] = test system: KARPAS-45; type: functional, cell-based; conditions: Homo sapiens;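 note: inhibition of cell line growth, read out through a viability assay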
Description: SANGER: Inhibition of human KARPAS-45 cell growth in a cell viability assay.

[12] = test system: KE-37; type: functional, cell-based; conditions: Homo sapiens;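 note: growth inhibition of KE-37 cells, read out with a cell viability assay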
Description: SANGER: Inhibition of human KE-37 cell growth in a cell viability assay.

[13] = test system: KLE; type: functional, cell-based, Homo sapiens; conditions: Homo sapiens, KLE;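 note: growth inhibition of human KLE cells, read out with a cell viability assay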
Description: SANGER: Inhibition of human KLE cell growth in a cell viability assay.

[14] = test system: KS-1; type: functional, cell-based, Homo sapiens; conditions: Homo sapiens, KS-1;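 note: growth inhibition of KS-1 cells, read out with a cell viability assay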
Description: SANGER: Inhibition of human KS-1 cell growth in a cell viability assay.

[15] = test system: KU812 cell line; type: functional, cell-based; conditions: Homo sapiens;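 note: growth inhibition of KU812 cells, read out with a cell viability assay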
Description: SANGER: Inhibition of human KU812 cell growth in a cell viability assay.

[16] = test system: KYSE-180; type: functional, cell-based, Homo sapiens; conditions: Homo sapiens, KYSE-180;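 note: growth inhibition of KYSE-180 cells, read out with a cell viability assay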
Description: SANGER: Inhibition of human KYSE-180 cell growth in a cell viability assay.

[17] = test system: LoVo; type: functional, cell-based; conditions: Homo sapiens;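 note: growth inhibition of human LoVo cells, read out with a cell viability assay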
Description: SANGER: Inhibition of human LoVo cell growth in a cell viability assay.

[18] = test system: M059J; type: functional, cell-based, Homo sapiens; conditions: Homo sapiens, M059J;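 note: growth inhibition of M059J cells, read out with a cell viability assay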
Description: SANGER: Inhibition of human M059J cell growth in a cell viability assay.

[19] = test system: M14; type: functional, cell-based, Homo sapiens; conditions: Homo sapiens, M14;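 note: growth inhibition of M14 cells, read out with a cell viability assay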
Description: SANGER: Inhibition of human M14 cell growth in a cell viability assay.

[20] = test system: MOLT-16; type: functional, cell-based; conditions: Homo sapiens;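 note: growth inhibition of human MOLT-16 cells, read out with a cell viability assay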
Description: SANGER: Inhibition of human MOLT-16 cell growth in a cell viability assay.

[21] = test system: MeWo; type: functional, cell-based, Homo sapiens; conditions: Homo sapiens, MeWo;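 note: growth inhibition of MeWo cells, determined by a cell viability readout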
Description: SANGER: Inhibition of human Mewo cell growth in a cell viability assay.

[22] = test system: NCI-H1355; type: functional, cell-based, Homo sapiens; conditions: Homo sapiens, NCI-H1355;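 note: growth inhibition of human NCI-H1355 cells, read out by a cell viability assay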
Description: SANGER: Inhibition of human NCI-H1355 cell growth in a cell viability assay.

[23] = test system: NCI-H1755; type: functional, cell-based, Homo sapiens; conditions: Homo sapiens, NCI-H1755;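 note: cell viability readout used to measure growth inhibition of NCI-H1755 cells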
Description: SANGER: Inhibition of human NCI-H1755 cell growth in a cell viability assay.

[24] = test system: NCI-H292; type: functional, cell-based, Homo sapiens; conditions: Homo sapiens, NCI-H292;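 note: growth inhibition of NCI-H292 cells, read out with a cell viability assay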
Description: SANGER: Inhibition of human NCI-H292 cell growth in a cell viability assay.

[25] = test system: NCI-H69; type: functional, cell-based; conditions: Homo sapiens;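 note: growth inhibition of the cell line, read out with a cell viability assay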
Description: SANGER: Inhibition of human NCI-H69 cell growth in a cell viability assay.

[26] = test system: NCI-H82; type: functional, cell-based; conditions: Homo sapiens;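 note: growth inhibition of NCI-H82 cells, measured with a cell viability readout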
Description: SANGER: Inhibition of human NCI-H82 cell growth in a cell viability assay.

[27] = test system: NMC-G1; type: functional, cell-based, Homo sapiens; conditions: Homo sapiens, NMC-G1;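 note: growth inhibition of the NMC-G1 cell line, measured with a cell viability read-out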
Description: SANGER: Inhibition of human NMC-G1 cell growth in a cell viability assay.

[28] = test system: OCUB-M; type: functional, cell-based, Homo sapiens; conditions: Homo sapiens, OCUB-M;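 note: growth inhibition of the cancer cell line, read out through a cell viability assay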
Description: SANGER: Inhibition of human OCUB-M cell growth in a cell viability assay.

[29] = test system: OVCAR-4; type: functional, cell-based, Homo sapiens; conditions: Homo sapiens, OVCAR-4;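 note: growth inhibition of human OVCAR-4 cells, measured with a cell viability assay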
Description: SANGER: Inhibition of human OVCAR-4 cell growth in a cell viability assay.

[30] = test system: P30-OHK; type: functional, cell-based; conditions: Homo sapiens;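 note: growth inhibition of the P30-OHK cell line, read out with a cell viability assay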
Description: SANGER: Inhibition of human P30-OHK cell growth in a cell viability assay.

[31] = test system: PC-3; type: functional, cell-based, Homo sapiens; conditions: Homo sapiens, PC-3;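 note: cell viability assay measuring growth inhibition of PC-3 cells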
Description: SANGER: Inhibition of human PC-3 cell growth in a cell viability assay.

[32] = test system: RKO; type: functional, cell-based, Homo sapiens; conditions: Homo sapiens, RKO;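 note: growth inhibition of human RKO cells, read out with a cell viability assay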
Description: SANGER: Inhibition of human RKO cell growth in a cell viability assay.

[33] = test system: RPMI-8866; type: functional, cell-based; conditions: Homo sapiens
Description: SANGER: Inhibition of human RPMI-8866 cell growth in a cell viability assay.

[34] = test system: S-117; type: functional, cell-based, Homo sapiens; conditions: Homo sapiens, S-117
Description: SANGER: Inhibition of human S-117 cell growth in a cell viability assay.

[35] = test system: SCC-9; type: functional, cell-based, Homo sapiens; conditions: Homo sapiens, SCC-9;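 note: Read-out is a cell viability assay, with values giving inhibition of cell growth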
Description: SANGER: Inhibition of human SCC-9 cell growth in a cell viability assay.

[36] = test system: SF-126; type: functional, cell-based, Homo sapiens; conditions: Homo sapiens, SF-126;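 note: growth inhibition of human SF126 cells, read out with a cell viability assay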
Description: SANGER: Inhibition of human SF126 cell growth in a cell viability assay.

[37] = test system: SK-LU-1; type: functional, cell-based, Homo sapiens; conditions: Homo sapiens, SK-LU-1;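 note: cell viability assay measuring growth inhibition of human SK-LU-1 cells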
Description: SANGER: Inhibition of human SK-LU-1 cell growth in a cell viability assay.

[38] = test system: SW-620; type: functional, cell-based, Homo sapiens; conditions: Homo sapiens, SW-620;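 note: growth inhibition of human SW-620 cells, measured by a cell viability assay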
Description: SANGER: Inhibition of human SW620 cell growth in a cell viability assay.

[39] = test system: SW872; type: functional, cell-based, Homo sapiens; conditions: Homo sapiens, SW872;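 note: growth inhibition of SW872 cells, read out by a viability assay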
Description: SANGER: Inhibition of human SW872 cell growth in a cell viability assay.

[40] = test system: 786-0; type: functional, cell-based, Homo sapiens; conditions: Homo sapiens
Description: SANGER: Inhibition of human 786-0 cell growth in a cell viability assay.

[41] = test system: A3-KAW; type: functional, cell-based; conditions: Homo sapiens;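 note: growth inhibition of human A3-KAW cells, read out with a cell viability assay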
Description: SANGER: Inhibition of human A3-KAW cell growth in a cell viability assay.

[42] = test system: A388; type: functional, cell-based, Homo sapiens; conditions: Homo sapiens, A388;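 note: growth inhibition of human A388 cells, read out with a cell viability assay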
Description: SANGER: Inhibition of human A388 cell growth in a cell viability assay.

[43] = test system: AN3-CA; type: functional, cell-based; conditions: Homo sapiens;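 note: growth inhibition of human AN3-CA cells measured by a cell viability assay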
Description: SANGER: Inhibition of human AN3-CA cell growth in a cell viability assay.

[44] = test system: AU565; type: functional, cell-based, Homo sapiens; conditions: Homo sapiens, AU565;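 note: cell viability assay measuring growth inhibition of human AU565 cells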
Description: SANGER: Inhibition of human AU565 cell growth in a cell viability assay.

[45] = test system: BFTC-905; type: functional, cell-based, Homo sapiens; conditions: Homo sapiens, BFTC-905
Description: SANGER: Inhibition of human BFTC-905 cell growth in a cell viability assay.

[46] = test system: C2BBe1; type: functional, cell-based, Homo sapiens; conditions: Homo sapiens, C2BBe1;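 note: growth inhibition of C2BBe1 cells, read out through a viability assay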
Description: SANGER: Inhibition of human C2BBe1 cell growth in a cell viability assay.

[47] = test system: C8166; type: functional, cell-based; conditions: Homo sapiens;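 note: growth inhibition of human C8166 cells measured by a cell viability assay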
Description: SANGER: Inhibition of human C8166 cell growth in a cell viability assay.

[48] = test system: CAL-51; type: functional, cell-based, Homo sapiens; conditions: Homo sapiens, CAL-51;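 note: human CAL-51 cell line, growth inhibition read out via a cell viability assay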
Description: SANGER: Inhibition of human CAL-51 cell growth in a cell viability assay.

[49] = test system: TGW; type: functional, cell-based; conditions: Homo sapiens;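 note: growth inhibition of human TGW cells, read out with a cell viability assay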
Description: SANGER: Inhibition of human TGW cell growth in a cell viability assay.

[50] = test system: U2OS; type: functional, cell-based, Homo sapiens, U-2-OS; conditions: Homo sapiens, U2OS;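 note: growth inhibition of human U-2-OS cells, determined with a cell viability assay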
Description: SANGER: Inhibition of human U-2-OS cell growth in a cell viability assay.

[51] = test system: VM-CUB-1; type: functional, cell-based; conditions: Homo sapiens;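 note: cell viability assay measuring growth inhibition of the human VM-CUB-1 cell line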
Description: SANGER: Inhibition of human VM-CUB-1 cell growth in a cell viability assay.

[52] = test system: CAPAN-1; type: functional, cell-based, Homo sapiens; conditions: Homo sapiens, CAPAN-1;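 note: growth suppression of CAPAN-1 cells, read out by a cell viability assay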
Description: SANGER: Inhibition of human CAPAN-1 cell growth in a cell viability assay.

[53] = test system: COLO-668; type: functional, cell-based, Homo sapiens; conditions: Homo sapiens, COLO-668
Description: SANGER: Inhibition of human COLO-668 cell growth in a cell viability assay.

[54] = test system: SiHa; type: functional, cell-based, Homo sapiens; conditions: Homo sapiens, SiHa;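 note: Viability-based readout of growth inhibition in SiHa cells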
Description: SANGER: Inhibition of human SiHa cell growth in a cell viability assay.

Measured: IC50

CC(=O)O[C@@H]1[C@@H](OC(C)=O)[C@@H](O)[C@H](Oc2c(-c3ccc(O)cc3)oc3cc(O)cc(O)c3c2=O)O[C@H]1C
5.06 µM: [26]
> 10 µM: [1] | [2] | [3] | [4] | [5] | [6] | [7] | [8] | [9] | [10] | [11] | [12] | [13] | [14] | [15] | [16] | [17] | [18] | [19] | [20] | [21] | [22] | [23] | [24] | [25] | [27] | [28] | [29] | [30] | [31] | [32] | [33] | [34] | [35] | [36] | [37] | [38] | [39] | [40] | [41] | [42] | [43] | [44] | [45] | [46] | [47] | [48] | [49] | [50] | [51] | [52] | [53]

CN(Cc1cnc2nc(N)nc(N)c2n1)c1ccc(C(=O)N[C@@H](CCC(=O)O)C(=O)O)cc1 [METHOTREXATE]
0.02 µM: [33]
0.124 µM: [11]
0.0155 µM: [12]
0.182 µM: [50]
0.00892 µM: [41]
0.0436 µM: [30]
> 0.2 µM: [1] | [2] | [3] | [4] | [5] | [7] | [8] | [9] | [10] | [13] | [14] | [16] | [17] | [18] | [19] | [21] | [22] | [23] | [24] | [26] | [27] | [28] | [29] | [31] | [32] | [34] | [35] | [36] | [37] | [38] | [39] | [54] | [40] | [42] | [43] | [45] | [46] | [47] | [48] | [51] | [52] | [53]
0.0613 µM: [44]
0.0116 µM: [20]

Cn1cc(C2=C(c3ccc(Cl)cc3Cl)C(=O)NC2=O)c2ccccc21 [SB-216763]
7.68 µM: [9]
> 10 µM: [1] | [2] | [3] | [5] | [7] | [8] | [10] | [11] | [12] | [13] | [14] | [16] | [17] | [18] | [19] | [20] | [21] | [22] | [23] | [24] | [26] | [27] | [28] | [29] | [30] | [31] | [32] | [33] | [34] | [35] | [36] | [37] | [38] | [39] | [54] | [40] | [41] | [42] | [43] | [44] | [45] | [46] | [47] | [48] | [50] | [51] | [52] | [53]
9.6 µM: [4]
